Data: patent US7964647B2 (Mutual Pharmaceutical Company, Inc., priority 2007, dated 2011)

Assays:
clinical = conditions: human, plasma, oral, 1.8 mg, N = 13; for Cmax: low-dose regimen 1.8 mg (2 x 0.6 mg, then 0.6 mg 1 hour later), fasting healthy adults; for Tmax / half-life: low-dose regimen 1.8 mg, healthy adults; for Tmax: time after the initial dose
Experimental: This study was a single-center, single-period, open-label pharmacokinetic study conducted in healthy subjects under fasting conditions.
Subjects received 2×0.6 mg tablets initially followed by 1×0.6 mg tablet 1 hour later.

[1] = test system: patients with acute gout flare (acute gouty arthritic attack); assay: Same acute gout flare study: safety (treatment emergent adverse events); type: in vivo, human
Text: A sufficient number of patients are screened to enroll and randomize 300 patients (100 patients per treatment group) who meet the criteria of the American College of Rheumatology (ACR) for acute arthritis of gout. […] Secondary objectives of the study are to compare low-dose and standard-dose dosing regimens of colchicine with respect to pain, time to response and complete pain relief, interference with sleep, and signs and symptoms of inflammation and to determine the safety of colchicine when administered in the two different dosing regimens.
Safety assessments will be made based on patient and Investigator inputs. Patients will be initially screened in the clinic for inclusion by review of medical history and concomitant medication use, physical examination, measurement of vital signs (oral temperature, sitting radial or brachial pulse rate, respiratory rate, and sitting blood pressure), body weight, and clinical laboratory testing (serum biochemistry, complete blood count, and urinalysis). After randomization, clinical laboratory tests, concomitant medication use, medical history and current complaints (AE) will be reviewed every 3 months until an acute gout flare occurs in order to ensure continued eligibility. Compliance with key inclusion/exclusion criteria (based on intervening medical history and concomitant medication use) will be re confirmed by the Gout Flare Call Center prior to authorizing the start of study drug. Following the start of study drug, patients will record any severe gastrointestinal AEs on their diaries and these will be recorded in the Case Report Form (CRF) at each clinic visit. Full physical examinations and clinical laboratory testing will be conducted at the final clinic visit (Visit 4 or Visit 5). Vital signs and body weight will be measured at each Post Flare visit (Visit 3 and 4 or 5). For those patients in whom there is an unresolved AE or clinically significant treatment emergent laboratory abnormality, there will be one additional follow up visit 14 days post flare onset (Visit 6).
Safety analysis will be performed by coding adverse events using a standardized medical dictionary and the incidence summarized by treatment group; tabulations will be prepared of all AEs as well as by relationship and by severity. Adverse events resulting in termination and events meeting regulatory criteria for seriousness will also be tabulated separately. Descriptive statistics (mean, median, standard deviation, and range) of clinical laboratory testing results and vital sign measurements will be generated for each treatment group and change from the most recent value prior to onset of the acute gout flare calculated; no inferential testing will be performed. Treatment emergent abnormalities on physical examination will be tabulated and listed by treatment group. By patient listings of all safety data and concomitant medication use will be generated.

[2] = low-dose regimen 1.8 mg (2 x 0.6 mg, then 0.6 mg 1 hour later), fasting healthy adults, N = 13
[3] = low-dose regimen 1.8 mg, healthy adults, N = 13
[4] = low-dose regimen 1.8 mg, time after the initial dose, healthy adults, N = 13

COc1cc2c(c(OC)c1OC)-c1ccc(OC)c(=O)cc1[C@@H](NC(C)=O)CC2 [Colchicine, (−)-N-[(7S,12aS)-1,2,3,10-tetramethoxy-9-oxo-5,6,7,9-tetrahydrobenzo[a]heptalen-7-yl]-acetamide]
Cmax (clinical; MEAN): 6.19 ng/mL | Cmax (clinical; MEDIAN): 5.68 ng/mL | Tmax (clinical; MEAN): 1.81 h | Tmax (clinical; MEDIAN): 2 h | half-life (clinical; t1/2, MEAN): 23.6 h | half-life (clinical; t1/2, MEDIAN): 21.6 h | Cmax, MAX [2]: 11.37 ng/mL | Cmax, MIN [2]: 3.16 ng/mL | Maximum colchicine concentration (low-dose regimen 1.8 mg, healthy adults): 6.2 ng/mL | CL/F, MAX [3]: 52676.24 mL/h | CL/F, MEAN [3]: 36950.93 mL/h | CL/F, MEDIAN [3]: 35444.40 mL/h | CL/F, MIN [3]: 24295.73 mL/h | Kel, MAX [3]: 0.0502 h⁻¹ | Kel, MEAN [3]: 0.0326 h⁻¹ | Kel, MEDIAN [3]: 0.0322 h⁻¹ | Kel, MIN [3]: 0.0141 h⁻¹ | Total AUC0-t, MAX [3]: 58.93199 ng·h/mL | Total AUC0-t, MEAN [3]: 43.78755 ng·h/mL | Total AUC0-t, MEDIAN [3]: 43.94215 ng·h/mL | Total AUC0-t, MIN [3]: 28.82145 ng·h/mL | Total AUC∞, MAX [3]: 74.08708 ng·h/mL | Total AUC∞, MEAN [3]: 52.07006 ng·h/mL | Total AUC∞, MEDIAN [3]: 50.78377 ng·h/mL | Total AUC∞, MIN [3]: 34.171 ng·h/mL | Varea/F, MAX [3]: 1724.36 L | Varea/F, MEAN [3]: 1188.72 L | Varea/F, MEDIAN [3]: 1149.35 L | Varea/F, MIN [3]: 774.19 L | t1/2, MAX [3]: 49.20 h | t1/2, MEAN [3]: 23.63 h | t1/2, MIN [3]: 13.80 h | Tmax, MAX [4]: 2.50 h | Tmax, MIN [4]: 1.00 h | Subjects with a secondary peak within 6 hours after the first dose (low-dose regimen 1.8 mg, 10 of 13 subjects): 77% | Patients with severe TEAE: Gout ([1]; All colchicine, N = 126): 0 n | Patients with severe TEAE: Metabolism and Nutrition Disorders ([1]; All colchicine, N = 126): 0 n | Number (%) of patients with a TEAE discontinuing study ([1]; High dose 4.8 mg, N = 52): 0 n (%) | Number (%) of patients with a treatment emergent SAE ([1]; High dose 4.8 mg, N = 52): 0 n (%) | Number (%) of patients with at least one TEAE ([1]; High dose 4.8 mg, N = 52): 40 (76.9) n (%) | Number (%) of patients with at least one mild TEAE ([1]; High dose 4.8 mg, N = 52): 15 (28.8) n (%) | Number (%) of patients with at least one moderate TEAE ([1]; High dose 4.8 mg, N = 52): 15 (28.8) n (%) | Number (%) of patients with at least one severe TEAE ([1]; High dose 4.8 mg, N = 52): 10 (19.2) n (%) | Total number of TEAEs ([1]; High dose 4.8 mg, N = 52, safety population): 85 | Patients with at least one drug-related TEAE ([1]; High dose, N = 52): 38 (73.1) n (%) | Patients with drug-related TEAE: Diarrhea ([1]; High dose, N = 52): 38 (73.1) n (%) | Patients with drug-related TEAE: Gastro-intestinal Disorders ([1]; High dose, N = 52): 38 (73.1) n (%) | Patients with drug-related TEAE: Nausea ([1]; High dose, N = 52): 7 (13.5) n (%) | Patients with drug-related TEAE: Vomiting ([1]; High dose, N = 52): 8 (15.4) n (%) | Patients with severe TEAE: Diarrhea ([1]; High dose, N = 52): 19.2% | Patients with severe TEAE: Gout ([1]; High dose, N = 52): 0 n | Patients with severe TEAE: Metabolism and Nutrition Disorders ([1]; High dose, N = 52): 0 n | Number (%) of patients with a TEAE discontinuing study ([1]; Low dose 1.8 mg, N = 74): 0 n (%) | Number (%) of patients with a treatment emergent SAE ([1]; Low dose 1.8 mg, N = 74): 0 n (%) | Number (%) of patients with at least one TEAE ([1]; Low dose 1.8 mg, N = 74): 27 (36.5) n (%) | Number (%) of patients with at least one mild TEAE ([1]; Low dose 1.8 mg, N = 74): 19 (25.7) n (%) | Number (%) of patients with at least one moderate TEAE ([1]; Low dose 1.8 mg, N = 74): 8 (10.8) n (%) | Number (%) of patients with at least one severe TEAE ([1]; Low dose 1.8 mg, N = 74): 0 n (%) | Number (%) of patients with at least one treatment-emergent gastrointestinal AE, captured on Adverse Event CRF, All ([1]; Low dose 1.8 mg, N = 74): 19 (25.7) Number (%) | Number (%) of patients with at least one treatment-emergent gastrointestinal AE, captured on Adverse Event CRF, Severe ([1]; Low dose 1.8 mg, N = 74): 0 Number (%) | Number (%) of patients with at least one treatment-emergent gastrointestinal AE, captured on Patient Diary or Adverse Event CRF, All ([1]; Low dose 1.8 mg, N = 74): 33 (44.6) Number (%) | Number (%) of patients with at least one treatment-emergent gastrointestinal AE, captured on Patient Diary or Adverse Event CRF, Severe ([1]; Low dose 1.8 mg, N = 74): 3 (4.1) Number (%) | Number (%) of patients with at least one treatment-emergent gastrointestinal AE, captured on Patient Diary, Severe ([1]; Low dose 1.8 mg, N = 74): 3 (4.1) Number (%) | Total number of TEAEs ([1]; Low dose 1.8 mg, N = 74, safety population): 34 | Patients with at least one severe TEAE (any) ([1]; Low dose, N = 74): 0 n | Patients with drug-related TEAE: Diarrhea ([1]; Low dose, N = 74): 21.6% | Patients with drug-related TEAE: Gastro-intestinal Disorders ([1]; Low dose, N = 74): 24.3% | Patients with drug-related TEAE: Vomiting ([1]; Low dose, N = 74): 0 n | Patients with severe TEAE: Diarrhea ([1]; Low dose, N = 74): 0 n | Patients with severe TEAE: Gastrointestinal Disorders ([1]; Low dose, N = 74): 0 n | Patients with severe TEAE: Gout ([1]; Low dose, N = 74): 0 n | Patients with severe TEAE: Melaena ([1]; Low dose, N = 74): 0 n | Patients with severe TEAE: Metabolism and Nutrition Disorders ([1]; Low dose, N = 74): 0 n | Patients with severe TEAE: Musculoskeletal and Connective Tissue Disorders ([1]; Low dose, N = 74): 0 n | Patients with severe TEAE: Nausea ([1]; Low dose, N = 74): 0 n | Patients with severe TEAE: Pain in Extremity ([1]; Low dose, N = 74): 0 n | Number (%) of patients with at least one treatment-emergent gastrointestinal AE, captured on Adverse Event CRF, All ([1]; Standard dose 4.8 mg, N = 52): 40 (76.9)^2 Number (%) | Number (%) of patients with at least one treatment-emergent gastrointestinal AE, captured on Adverse Event CRF, Severe ([1]; Standard dose 4.8 mg, N = 52): 10 (19.2) Number (%) | Number (%) of patients with at least one treatment-emergent gastrointestinal AE, captured on Patient Diary or Adverse Event CRF, All ([1]; Standard dose 4.8 mg, N = 52): 49 (94.2)^2 Number (%) | Number (%) of patients with at least one treatment-emergent gastrointestinal AE, captured on Patient Diary or Adverse Event CRF, Severe ([1]; Standard dose 4.8 mg, N = 52): 18 (34.6) Number (%) | Number (%) of patients with at least one treatment-emergent gastrointestinal AE, captured on Patient Diary, All ([1]; Standard dose 4.8 mg, N = 52): 48 (92.3)^2 Number (%) | Number (%) of patients with at least one treatment-emergent gastrointestinal AE, captured on Patient Diary, Severe ([1]; Standard dose 4.8 mg, N = 52): 13 (25.0) Number (%) | Proportion of patients with vomiting ([1]; high-dose 4.8 mg): 15.4% | Occurrence of severe diarrhea ([1]; low-dose group 1.8 mg): not occurring | Occurrence of vomiting ([1]; low-dose group 1.8 mg): not occurring | Proportion of patients with diarrhea ([1]; standard dose 4.8 mg): 73.1% | Proportion of patients with gastrointestinal side effects ([1]; standard dose 4.8 mg): 73.1%
